The subject of this test is Splenic lymphocytes. Put plainly: Lymphocyte proliferation test (XTT). Format: cell-based, mice. The procedure: Splenic lymphocytes were split into 96-well plates at an initial density of 2×10^4 cells per well and were incubated with different doses of inosine under control, 40 μg/ml of LPS or 10 μg/ml of PHA condition, respectively. After 96 h, cell viability was measured by TACS XTT cell proliferation assay kit (Trevigen, Inc. Gaithersburg, Md.).
(In general: Tetrazolium dyes change colour on reduction, which living cells bring about.)

With `O=c1[nH]cnc2c1ncn2[C@@H]1O[C@H](CO)[C@@H](O)[C@H]1O` [inosine], the “proliferation of PHA-stimulated T-lymphocytes” value (96 h treatment, 10 μg/ml of PHA) is “does not inhibit”. Also, the “proliferation of LPS-stimulated B-lymphocytes” value (96 h treatment, 40 μg/ml of LPS) is listed as “does not inhibit”. Further, the “proliferation of lymphocytes in vitro” value (different doses of inosine, 96 h) is “did not inhibit”.

The values above are taken from patent US11602551B2, “Use of inosine for the treatment of t-reg deficiency” (BioGaia AB, priority 2016, dated 2023).
